In ChEMBL document CHEMBL4334516, “Kinase Chemodiversity from the Arctic: The Breitfussins” (J Med Chem, 2019):

Experiments:
[1] = target: Dual specificity tyrosine-phosphorylation-regulated kinase 1A (Homo sapiens, UniProt Q13627); assay: Inhibition of DYRK1A (unknown origin) by [33P]-ATP filter binding kinase assay
[2] = target: Receptor-interacting serine/threonine-protein kinase 2 (Homo sapiens, UniProt O43353); assay: Inhibition of RIPK2 (unknown origin) by [33P]-ATP filter binding kinase assay
Sequence of Receptor-interacting serine/threonine-protein kinase 2 (O43353 whole entry): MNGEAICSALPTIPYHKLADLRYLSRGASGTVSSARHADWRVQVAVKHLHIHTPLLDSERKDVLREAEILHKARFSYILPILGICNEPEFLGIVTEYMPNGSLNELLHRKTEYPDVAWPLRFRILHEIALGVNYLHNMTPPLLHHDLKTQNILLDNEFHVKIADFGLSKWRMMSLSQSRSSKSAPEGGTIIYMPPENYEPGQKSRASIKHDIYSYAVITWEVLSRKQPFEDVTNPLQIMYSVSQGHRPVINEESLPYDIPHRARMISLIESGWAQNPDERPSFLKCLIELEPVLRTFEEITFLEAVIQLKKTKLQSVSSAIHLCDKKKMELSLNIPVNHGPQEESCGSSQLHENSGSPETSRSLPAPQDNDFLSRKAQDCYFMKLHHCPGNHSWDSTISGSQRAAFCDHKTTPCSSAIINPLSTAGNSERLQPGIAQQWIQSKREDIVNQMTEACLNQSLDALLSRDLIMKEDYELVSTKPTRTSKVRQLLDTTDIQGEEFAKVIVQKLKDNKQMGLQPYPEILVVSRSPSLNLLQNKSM

[3] = target: T1, Mitogen-activated protein kinase kinase kinase kinase 2 (Homo sapiens, UniProt Q12851); assay: Inhibition of GCK (unknown origin) by [33P]-ATP filter binding kinase assay
T1 sequence (Q12851 whole entry): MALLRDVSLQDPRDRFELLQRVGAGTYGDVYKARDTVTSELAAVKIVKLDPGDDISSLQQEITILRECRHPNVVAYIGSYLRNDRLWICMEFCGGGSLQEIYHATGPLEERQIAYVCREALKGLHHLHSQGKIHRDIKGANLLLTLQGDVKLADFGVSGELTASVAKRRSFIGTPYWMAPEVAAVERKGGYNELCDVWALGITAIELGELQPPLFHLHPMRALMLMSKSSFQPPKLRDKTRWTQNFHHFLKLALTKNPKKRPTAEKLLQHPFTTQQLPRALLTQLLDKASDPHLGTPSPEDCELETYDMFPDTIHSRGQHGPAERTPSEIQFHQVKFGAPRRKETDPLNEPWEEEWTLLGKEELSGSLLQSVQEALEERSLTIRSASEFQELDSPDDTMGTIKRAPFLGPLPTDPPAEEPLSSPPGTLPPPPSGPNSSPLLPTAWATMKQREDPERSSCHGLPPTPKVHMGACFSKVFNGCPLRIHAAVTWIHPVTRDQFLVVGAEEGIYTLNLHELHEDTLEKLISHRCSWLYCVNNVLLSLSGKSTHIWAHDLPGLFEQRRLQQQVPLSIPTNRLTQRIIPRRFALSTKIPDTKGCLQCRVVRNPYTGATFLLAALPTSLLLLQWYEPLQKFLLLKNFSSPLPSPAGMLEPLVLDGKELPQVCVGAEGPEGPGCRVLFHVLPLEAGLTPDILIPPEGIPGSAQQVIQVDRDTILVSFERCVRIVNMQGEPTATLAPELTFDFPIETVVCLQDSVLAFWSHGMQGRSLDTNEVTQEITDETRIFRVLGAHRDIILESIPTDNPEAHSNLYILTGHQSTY

MDA-MB-468 = assay: Cytotoxicity in human MDA-MB-468 cells assessed as reduction in cell viability incubated for 72 hrs by MTS assay; format: functional, cell-based; conditions: MDA-MB-468, 72 h
MCF7 = assay: Cytotoxicity in human MCF7 cells assessed as reduction in cell viability incubated for 72 hrs by MTS assay; format: functional, cell-based; conditions: MCF7, 72 h
[4] = target: T2, Serine/threonine-protein kinase 17A (Homo sapiens, UniProt Q9UEE5); assay: Inhibition of DRAK1 (unknown origin) expressed in HEK293 cells by NanoLuc-luciferase reporter based intracellular ATP competitiveness assay; format: cell-based
T2 sequence (Q9UEE5 whole entry): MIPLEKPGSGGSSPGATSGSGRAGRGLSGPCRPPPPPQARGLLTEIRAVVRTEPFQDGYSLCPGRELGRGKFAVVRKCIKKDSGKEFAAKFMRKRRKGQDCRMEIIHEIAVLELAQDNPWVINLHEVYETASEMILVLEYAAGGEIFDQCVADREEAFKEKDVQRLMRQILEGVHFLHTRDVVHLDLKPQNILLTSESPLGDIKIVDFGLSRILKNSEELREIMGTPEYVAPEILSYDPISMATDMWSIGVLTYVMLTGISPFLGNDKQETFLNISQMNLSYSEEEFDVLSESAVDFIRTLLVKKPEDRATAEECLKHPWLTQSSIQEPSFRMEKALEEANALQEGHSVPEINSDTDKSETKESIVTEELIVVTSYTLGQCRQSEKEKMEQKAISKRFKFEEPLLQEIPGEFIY

SK-BR-3 = assay: Cytotoxicity in human SK-BR-3 cells assessed as reduction in cell viability incubated for 72 hrs by MTS assay; format: functional, cell-based; conditions: SK-BR-3, 72 h
[5] = target: Serine/threonine-protein kinase pim-3 (Homo sapiens, UniProt Q86V86); assay: Inhibition of PIM3 (unknown origin) by [33P]-ATP filter binding kinase assay
[6] = target: T3, Mitogen-activated protein kinase kinase kinase 7 (Homo sapiens, UniProt O43318); assay: Inhibition of TAK1 (unknown origin) by [33P]-ATP filter binding kinase assay
T3 sequence (O43318 whole entry): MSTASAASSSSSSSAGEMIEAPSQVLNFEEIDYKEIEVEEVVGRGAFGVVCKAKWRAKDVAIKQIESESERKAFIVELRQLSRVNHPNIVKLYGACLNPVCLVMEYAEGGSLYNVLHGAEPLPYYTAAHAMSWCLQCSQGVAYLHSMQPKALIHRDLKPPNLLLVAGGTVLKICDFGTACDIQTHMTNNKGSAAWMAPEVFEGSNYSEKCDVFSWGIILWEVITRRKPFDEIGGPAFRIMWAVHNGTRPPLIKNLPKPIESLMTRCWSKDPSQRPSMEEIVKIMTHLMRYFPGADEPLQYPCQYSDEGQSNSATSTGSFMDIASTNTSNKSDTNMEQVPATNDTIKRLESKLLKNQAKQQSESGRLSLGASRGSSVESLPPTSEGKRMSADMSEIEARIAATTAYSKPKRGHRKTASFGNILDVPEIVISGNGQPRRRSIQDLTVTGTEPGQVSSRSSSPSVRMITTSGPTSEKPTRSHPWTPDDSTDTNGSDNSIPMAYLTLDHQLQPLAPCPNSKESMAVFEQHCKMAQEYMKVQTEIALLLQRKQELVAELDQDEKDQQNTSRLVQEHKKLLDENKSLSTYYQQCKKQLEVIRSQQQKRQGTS

Aurora kinase A = target: T4, Aurora kinase A (Homo sapiens, UniProt O14965); assay: Inhibition of Aurora A (unknown origin) by [33P]-ATP filter binding kinase assay
T4 sequence (O14965 whole entry): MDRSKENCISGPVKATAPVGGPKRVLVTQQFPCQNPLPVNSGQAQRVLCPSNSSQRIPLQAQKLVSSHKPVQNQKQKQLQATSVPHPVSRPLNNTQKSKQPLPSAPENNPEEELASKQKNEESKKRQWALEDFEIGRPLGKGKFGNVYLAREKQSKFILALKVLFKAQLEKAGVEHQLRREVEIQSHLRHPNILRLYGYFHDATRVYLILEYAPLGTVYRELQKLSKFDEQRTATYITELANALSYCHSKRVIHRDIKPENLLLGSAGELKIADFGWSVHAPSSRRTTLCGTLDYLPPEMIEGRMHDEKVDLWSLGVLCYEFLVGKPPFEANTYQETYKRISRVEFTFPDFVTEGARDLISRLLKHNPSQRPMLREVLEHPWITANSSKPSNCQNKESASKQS

[7] = target: Serine/threonine-protein kinase SIK3 (Homo sapiens, UniProt Q9Y2K2); assay: Inhibition of SIK3 (unknown origin) by [33P]-ATP filter binding kinase assay
Sequence of Serine/threonine-protein kinase SIK3 (Q9Y2K2 whole entry): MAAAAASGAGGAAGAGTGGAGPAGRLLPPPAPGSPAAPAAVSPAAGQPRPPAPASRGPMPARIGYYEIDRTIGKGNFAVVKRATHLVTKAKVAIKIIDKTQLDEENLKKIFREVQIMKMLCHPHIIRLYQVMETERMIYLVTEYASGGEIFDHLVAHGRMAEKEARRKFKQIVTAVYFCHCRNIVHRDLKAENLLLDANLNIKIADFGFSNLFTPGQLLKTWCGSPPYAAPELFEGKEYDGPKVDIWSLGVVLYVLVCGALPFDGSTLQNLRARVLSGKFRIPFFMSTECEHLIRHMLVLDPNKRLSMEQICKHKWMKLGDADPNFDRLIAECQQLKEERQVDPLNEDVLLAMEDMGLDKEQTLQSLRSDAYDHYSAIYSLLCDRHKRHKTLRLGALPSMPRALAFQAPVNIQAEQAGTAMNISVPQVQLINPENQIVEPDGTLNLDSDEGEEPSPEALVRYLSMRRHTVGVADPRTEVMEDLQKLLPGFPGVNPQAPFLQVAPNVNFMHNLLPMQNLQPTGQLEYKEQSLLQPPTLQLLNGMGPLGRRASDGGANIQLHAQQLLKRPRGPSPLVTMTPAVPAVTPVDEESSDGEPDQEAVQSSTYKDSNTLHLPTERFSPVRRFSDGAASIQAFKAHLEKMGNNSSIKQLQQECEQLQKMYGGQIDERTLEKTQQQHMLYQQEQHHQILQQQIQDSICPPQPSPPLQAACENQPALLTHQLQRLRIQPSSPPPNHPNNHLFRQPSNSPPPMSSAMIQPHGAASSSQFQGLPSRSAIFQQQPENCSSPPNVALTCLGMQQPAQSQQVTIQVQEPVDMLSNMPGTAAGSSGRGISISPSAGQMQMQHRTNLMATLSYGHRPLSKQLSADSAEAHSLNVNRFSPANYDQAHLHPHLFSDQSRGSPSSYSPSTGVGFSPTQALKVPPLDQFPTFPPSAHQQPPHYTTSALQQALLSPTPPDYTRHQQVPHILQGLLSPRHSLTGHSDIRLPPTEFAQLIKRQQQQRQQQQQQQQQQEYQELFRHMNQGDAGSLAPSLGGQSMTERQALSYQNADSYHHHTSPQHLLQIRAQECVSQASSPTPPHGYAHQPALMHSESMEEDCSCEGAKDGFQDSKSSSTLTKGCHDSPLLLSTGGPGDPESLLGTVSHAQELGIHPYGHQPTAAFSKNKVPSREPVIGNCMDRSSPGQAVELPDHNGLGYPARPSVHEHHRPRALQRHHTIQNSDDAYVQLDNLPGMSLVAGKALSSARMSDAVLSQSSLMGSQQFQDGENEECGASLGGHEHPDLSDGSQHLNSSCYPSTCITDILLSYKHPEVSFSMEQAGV

[8] = target: Mitogen-activated protein kinase kinase kinase 9 (Homo sapiens, UniProt P80192); assay: Inhibition of MLK1 (unknown origin) by [33P]-ATP filter binding kinase assay
Sequence of Mitogen-activated protein kinase kinase kinase 9 (P80192 whole entry): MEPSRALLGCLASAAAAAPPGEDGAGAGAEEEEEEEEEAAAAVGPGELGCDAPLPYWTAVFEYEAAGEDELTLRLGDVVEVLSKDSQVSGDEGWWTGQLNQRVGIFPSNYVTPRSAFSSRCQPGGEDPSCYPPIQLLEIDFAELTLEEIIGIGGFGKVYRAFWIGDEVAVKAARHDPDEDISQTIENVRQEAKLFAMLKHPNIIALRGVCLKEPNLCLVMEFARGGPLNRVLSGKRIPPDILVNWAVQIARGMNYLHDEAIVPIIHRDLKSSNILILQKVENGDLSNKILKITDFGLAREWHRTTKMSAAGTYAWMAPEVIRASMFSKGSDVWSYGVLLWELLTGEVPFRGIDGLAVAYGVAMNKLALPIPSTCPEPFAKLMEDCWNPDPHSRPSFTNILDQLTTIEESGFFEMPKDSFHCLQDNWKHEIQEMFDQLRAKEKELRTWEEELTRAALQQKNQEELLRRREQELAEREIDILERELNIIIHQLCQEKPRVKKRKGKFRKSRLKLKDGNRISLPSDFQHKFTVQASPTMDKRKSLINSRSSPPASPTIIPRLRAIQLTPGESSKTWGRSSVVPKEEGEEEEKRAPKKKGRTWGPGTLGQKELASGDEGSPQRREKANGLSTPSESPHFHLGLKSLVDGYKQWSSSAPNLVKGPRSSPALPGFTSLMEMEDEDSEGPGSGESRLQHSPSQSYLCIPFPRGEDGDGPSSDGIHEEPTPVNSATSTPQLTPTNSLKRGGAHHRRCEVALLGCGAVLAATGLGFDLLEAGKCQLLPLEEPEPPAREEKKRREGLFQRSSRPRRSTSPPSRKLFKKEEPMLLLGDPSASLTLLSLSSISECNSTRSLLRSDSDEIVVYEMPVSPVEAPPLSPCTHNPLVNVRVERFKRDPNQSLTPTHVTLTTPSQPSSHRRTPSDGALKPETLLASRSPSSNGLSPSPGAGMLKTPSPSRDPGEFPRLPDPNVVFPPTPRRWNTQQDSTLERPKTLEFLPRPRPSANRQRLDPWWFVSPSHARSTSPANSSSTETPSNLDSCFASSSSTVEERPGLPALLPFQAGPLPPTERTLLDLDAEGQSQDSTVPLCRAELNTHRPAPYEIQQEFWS

| IC50 [1] | IC50 [2] | IC50 [3] | IC50 [4] | IC50 [5] | IC50 [6] | IC50 (Aurora kinase A) | IC50 [7] | IC50 [8] | Structure (SMILES) | IC50 (MDA-MB-468) | IC50 (MCF7) | IC50 (SK-BR-3) |
| --- | --- | --- | --- | --- | --- | --- | --- | --- | --- | --- | --- | --- |
| > 10 µM | > 10 µM | 1.2 µM | > 10 µM | 3.7 µM | 1 µM | > 10 µM | > 10 µM | 0.9 µM | COc1cc(Br)cc2[nH]cc(-c3cnc(-c4ccc[nH]4)o3)c12 | > 10 µM | 3.9 µM | > 10 µM |
| > 10 µM | > 10 µM | > 10 µM | > 10 µM | > 10 µM | > 10 µM | > 10 µM | > 10 µM | > 10 µM | COc1cc(Br)cc2[nH]cc(-c3cnc(-c4ccc(Br)[nH]4)o3)c12 | > 10 µM | > 10 µM | > 10 µM |
| > 10 µM | > 10 µM | > 10 µM | > 10 µM | > 10 µM | > 10 µM | > 10 µM | > 10 µM | > 10 µM | COc1cc(Br)cc2[nH]cc(-c3oc(-c4ccc[nH]4)nc3I)c12 | > 10 µM | > 10 µM | > 10 µM |

| Structure (SMILES) | IC50 [1] | IC50 [2] | IC50 [3] | IC50 [4] | IC50 [5] | IC50 [6] | IC50 (Aurora kinase A) | IC50 [7] | IC50 [8] | IC50 (MDA-MB-468) | IC50 (MCF7) | IC50 (SK-BR-3) |
| --- | --- | --- | --- | --- | --- | --- | --- | --- | --- | --- | --- | --- |
| COc1cc2c(-c3cnc(-c4ccc[nH]4)o3)c[nH]c2cc1Br | – | 1.1 µM | 0.6 µM | – | 1.8 µM | 1.2 µM | 22 µM | 1.2 µM | 0.6 µM | > 10 µM | 8.5 µM | > 10 µM |
